Data as given in PubChem BioAssay (NCI).
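How tested: cells in 96-well plates exposed to compound for 48 hours at five concentrations. TGI marks complete inhibition of growth.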

Assays:
Assay in all cases: inhibition of tumour cell growth, NCI panel, 48 h
CAKI-1 renal = tested on: CAKI-1 renal
K-562 leukemia = tested on: K-562 leukemia
SK-MEL-28 melanoma = tested on: SK-MEL-28 melanoma
ACHN renal = tested on: ACHN renal
T-47D breast = tested on: T-47D breast
CCRF-CEM leukemia = tested on: CCRF-CEM leukemia
UO-31 renal = tested on: UO-31 renal
SK-MEL-2 melanoma = tested on: SK-MEL-2 melanoma
TK-10 renal = tested on: TK-10 renal
IGROV1 ovarian = tested on: IGROV1 ovarian

Compound	TGI (CAKI-1 renal) [µM]	TGI (K-562 leukemia) [µM]	TGI (SK-MEL-28 melanoma) [µM]	TGI (ACHN renal) [µM]	TGI (T-47D breast) [µM]	TGI (CCRF-CEM leukemia) [µM]	TGI (UO-31 renal) [µM]	TGI (SK-MEL-2 melanoma) [µM]	TGI (TK-10 renal) [µM]	TGI (IGROV1 ovarian) [µM]
NS(=O)(=O)c1nnc(NS(=O)(=O)c2cccc3cccnc23)s1	> 100	> 100	> 100	> 100	> 100	> 100	> 100	> 100	> 100	
COc1cc(C2c3cccc4cccc(c34)C3CCC(=O)N32)cc(OC)c1O (centres undefined)		> 50	> 50	> 50	> 50	> 50	> 50	> 50		> 50
COCC(C#N)NC1CC(OC2CC(O)(C(=O)CO)Cc3c(O)c4c(c(O)c32)C(=O)c2c(OC)cccc2C4=O)OC(C)C1O (centres undefined)	0.285	1.11	0.527	5.46		1.69	2.77	0.316	2.42	0.582
Cc1cn(C2CC(O)C(Cn3nncc3Cn3nc(Br)c(=O)[nH]c3=O)O2)c(=O)[nH]c1=O (centres undefined)	> 100		> 100	> 100	> 100	> 100	> 100	> 100	> 100	> 100
CCOC(=O)Cc1[nH]c(C(=O)c2ccccc2)cc1C(=O)c1ccccc1		> 10	> 10	> 10	> 100	> 10	> 10	> 100	> 100	> 10
N#CCCN(CCCCN(CCC#N)C(=O)Nc1ccccc1)C(=O)Nc1ccccc1	> 100	> 100	> 100	> 100	> 100		> 100	> 100		> 100
NC1(c2cc3ccccc3s2)CCCCCC1	26.8	28.1	30.9	33.4		35.4	28.1	22.1	28.8	32.6
CC1CN(c2cc3c(cc2F)c(=O)c(C(=O)O)cn3-c2ccc(N3CCN(C)CC3)cn2)CC(C)N1 (centres undefined)	> 100	> 100	> 100		> 100	> 100	> 100		> 100	> 100
CCCCCCc1ccc(CCCCCCCC(=O)O)o1	> 100	71.6	> 100	> 100	> 100	> 100	> 100	> 100		> 100
Cc1ccc(/C=c2\c(=O)[nH]c3nc4ccccc4c(=O)n23)cc1	> 100		> 100	> 100	> 100	> 100	> 100	> 100	> 100	
CCOC(=O)c1nc2ccccc2nc1Nc1ccc(C(=O)OC)s1	> 100		> 100	> 100	> 100	> 100	> 100	> 100	> 100	> 100
N#CC1=C(O)NC(O)=C(C#N)C1c1c(Cl)cccc1Cl	> 100	> 100	> 100	> 100		> 100	> 100	52.3	> 100	> 100
O=S(=O)(O)c1cc(S(=O)(=O)O)c2cc(N=Nc3ccc(N=Nc4ccc(/C=C/c5ccc(N=[N+]([O-])c6ccc(/C=C/c7ccc(N=Nc8ccc(N=Nc9ccc%10cc(S(=O)(=O)O)cc(S(=O)(=O)O)c%10c9)cc8)cc7S(=O)(=O)O)c(S(=O)(=O)O)c6)cc5S(=O)(=O)O)c(S(=O)(=O)O)c4)cc3)ccc2c1		> 100	> 100			> 100	> 100	> 100		> 100
C=C1c2c(n(S(=O)(=O)c3ccccc3)c3ccccc23)[C@@]2(C(=O)OC)CC3C=CC2N1C3	> 100	> 100	> 100	> 100	> 100	> 100		> 100	> 100	> 100
N=c1ncn(C/C=C/c2ccccc2)c2nc[nH]c12	> 100	> 100	> 100	> 100	> 100		> 100	> 100	> 100	> 100
COC1C(O)C(C)OC(O[C@H]2CC[C@@]3(C)C(CC[C@@H]4[C@@H]3CC[C@]3(C)[C@@H](C(C)OC5OC(CO)C(O)C(O)C5O)CC[C@]43O)C2)C1O (some centres undefined)	> 25	> 25	> 25	> 25		> 25	> 25	> 25	> 25	> 25
Cc1nc(N)c(N2CCN(S(=O)(=O)N(Cc3ccccc3)Cc3ccccc3)CC2)c(=O)[nH]1		> 100	34.1	85.1	59.7	> 100	> 100	> 100	59	
CC1(C)CC(=O)c2c(N)n[nH]c2C1	> 100	> 100	> 100	> 100		> 100	> 100	> 100		> 100
O=C(O)c1cc(NCc2cc(O)ccc2O)ccc1O	> 100		> 100	> 100	> 100	> 100	> 100	> 100	> 100	> 100
CC(C)(C)OC(=O)N1C(=O)C2CCCC21 (centres undefined)			> 100	> 100	> 100	> 100		> 100		> 100
Oc1ccc(-c2nc3cc(C(F)(F)F)ccc3s2)cc1	29.1	> 100		27.6		27.8	26.8	30.1	33.1	23.8
CC(C)OC1=C(CC2(C)OCCO2)C(=O)C12OCCO2	> 100		> 100	> 100	> 100	> 100	> 100	> 100	> 100	> 100
CCOc1ccc2c(c1)C(/C(C(Cl)=C(Cl)Cl)=[N+](/[O-])OC(=O)c1ccccc1)=N2	> 100	> 100	> 100	> 100	> 100	> 100	> 100	> 100	> 100	
